The values that follow come from publication PMC6271950, “LC-MS/MS Determination and Pharmacokinetic Study of Dehydrocorydaline in Rat Plasma after Oral Administration of Dehydrocorydaline and Corydalis yanhusuo Extract” (Molecules, 2014).

On the set-up of data set [1]: method as in PMID 16956957. The settings on record: 1 h after oral administration, in situ intestinal loop; cited from earlier work.
The subject of another data set is cytochrome P450 3A4. Also on record: method as in PMID 16133554. The conditions noted are these: cited from earlier work.
The test system of another data set is P-glycoprotein. Also on record: method as in PMID 12530470, PMID 12434406. The settings on record: efflux in Caco-2 cells and the liver; cited from earlier work. (In general: Caco-2 monolayers are a common model of the intestinal barrier.)
Data set [2] in a line: Urinary cumulative excretion of DHC after a single oral dose. Format: in vivo, Sprague-Dawley rats. The settings on record: rat, single oral dose 97.5 mg/kg, over 96 h. On the procedure: (§1) The cumulative excretion of DHC in bile and urine after a single i.g. dose of DHC (97.5 mg/kg) was determined. […] However, the urinary cumulative excretion of DHC was little. The mean accumulated amount of DHC in urine over 96 h was 0.17% ± 0.13% of dose. […] There might be a huge “first pass” effect in liver after oral administration and account for the trace plasma concentration.
For urinary excretion study, four rats were used. DHC was administered as described above. The animals were housed in stainless steel metabolic cages with free access to tap water. Urine was collected at 0–4, 4–8, 8–12, 12–24, 24–36, 36–60, 60–84 and 84–96 h post-dosing and kept at −20 °C after the volume of each collection was recorded.
A 200 μL aliquot of plasma was vortex mixed for 3 min with 200 μL of water and 50 μL of IS (800 ng/mL). After centrifugation at 9000 rpm for 10 min, all the supernatant was loaded onto an Oasis HLB cartridge (Waters, Milford, MA, USA), which was pre-conditioned with 1 mL of methanol followed by 1 mL of deionized water. The loaded-cartridge was sequentially washed with 1 mL of water and 1 mL of 20% methanol. The analytes were then eluted with 1 mL of methanol in water containing 2% formic acid. […]
(§2) An Agilent 1100 system (Palo Alto, CA, USA) equipped with a vacuum degasser, a quaternary pump, and an auto-sampler were used. […] [26, 27, 28] were monitored for DHC and IS, respectively. […]

The nature of data set [3]: Stability of DHC in rat plasma (QC samples). In kind it is in vitro ADME. The settings on record: for Cdec (mean ± S.D.): n = 6. As to the method: This is evidenced by the fact that the responses varied no more than ±10% over 24 h at the QC concentrations. After storage at ambient temperature for 12 h, the concentration of DHC in the plasma deviated less than ±13% from those in freshly-spiked plasma (Table 3).
The stability of DHC in rat plasma was evaluated under conditions that mimicked those likely to be encountered during sample storage and analytical processing. Six replicates of QC samples were analyzed for DHC. The QC samples were frozen and stored at −20 °C for a week. The concentration variation of the DHC in the prepared QC samples was detected after (i) three cycles of freezing and thawing, (ii) placement in an auto-sampler at 4 °C for 24 h, and (iii) storing at ambient temperature for 12 h.

Data set [4] in a line: Plasma pharmacokinetics of DHC after oral administration of pure DHC or EFY. In kind it is in vivo, Sprague-Dawley rats. The conditions noted are these: Sprague-Dawley, DHC in rat plasma, equivalent dose of 97.5 mg/kg DHC (EFY 483 mg/kg), n = 5, mean ± SD. As to the method: DHC is the most abundant quaternary protoberberine-type alkaloid in EFY and has clear cardiovascular pharmacological activity. A fully validated LC-ESI-MS/MS method was developed and was successfully applied to a pharmacokinetic study of DHC when given in the two different dosage forms (EFY and pure compound) via oral administration in rats. The doses of DHC and EFY were 97.5 mg/kg and 483 mg/kg (equivalent to 97.5 mg/kg DHC), respectively. The mean plasma concentration-time profiles of DHC after the two doses are illustrated in Figure 5 and the estimated pharmacokinetic parameters are presented in Table 5.
For pharmacokinetics study, the rats were divided into two groups (n = 5 per group). Doses of 97.5 mg/kg of DHC or 483 mg/kg of EFY (equivalent to 97.5 mg/kg DHC, 20.19% DHC in EFY) were all gavage administrated. Blood samples (500 μL) were withdrawn from the oculi chorioideae vein into heparinized tubes before dosing and subsequently at 15, 30 and 45 min and then at 1, 2, 4, 6, 8, 12 and 24 h following initial administration. After 1 h and 8 h, 2 mL of normal saline was injected into the caudal vein to compensate for blood loss. After centrifuging at 4000 rpm for 10 min, plasma samples were obtained and frozen at −20 °C until analysis.
A 200 μL aliquot of plasma was vortex mixed for 3 min with 200 μL of water and 50 μL of IS (800 ng/mL). After centrifugation at 9000 rpm for 10 min, all the supernatant was loaded onto an Oasis HLB cartridge (Waters, Milford, MA, USA), which was pre-conditioned with 1 mL of methanol followed by 1 mL of deionized water. The loaded-cartridge was sequentially washed with 1 mL of water and 1 mL of 20% methanol. The analytes were then eluted with 1 mL of methanol in water containing 2% formic acid. The collected eluate was evaporated to dryness at 40 °C under a gentle stream of nitrogen. The residue was reconstituted in 150 μL of 10% acetonitrile, and 30 μL of the resulting sample was injected into the LC-MS/MS system for assay. Bile and urine samples were all processed in a similar manner as the plasma samples.
An Agilent 1100 system (Palo Alto, CA, USA) equipped with a vacuum degasser, a quaternary pump, and an auto-sampler were used. Chromatographic separation was achieved on an Atlantis T3 column (100 mm × 2.1 mm, 5 μm; Waters, Milford, MA, USA), which was eluted with a mobile phase of acetonitrile and water (containing 0.8% formic acid and 10 mM ammonium acetate) (28:72, v/v). The mobile phase was delivered at a flow-rate of 0.25 mL/min and 40% of the eluate was introduced into an API 3000 triple-quadrupole mass spectrometer (Applied Biosystems MDS SCIEX, Concord, ON, Canada) equipped with a TurboIonSpray electrospray ionization (ESI) source. Detection was performed using positive-ion electrospray ionization in multiple reaction monitoring (MRM) modes. The transitions from molecular ion to dominant product ion m/z 366→351[M−CH3] and m/z 348→332[M−CH3−H] [26, 27, 28] were monitored for DHC and IS, respectively. The optimized working parameters for mass detection were as follows. The nebulizer, curtain, and collision-activated dissociation gases were set at 11, 7 and 11 (instrument units), respectively. The TurboIonSpray voltage and temperature were set at 4.5 kV and 400 °C, respectively. All data acquisition was performed using Analyst software (v1.4, AB MDS SCIEX).
Pharmacokinetic parameters were established from the plasma concentration–time data using non-compartmental analysis. The terminal elimination rate constant (Ke) was determined by linear regression of the terminal portion of the plasma concentration-time data. The elimination half-life (t1/2) was calculated using the expression: t1/2 = ln2/Ke(2) The area under the curve (AUC) for the plasma concentration-time trace from zero to the last plasma drug concentration (AUC0–t) was calculated using the trapezoidal rule. […]

Data set [5] is described as follows: Biliary cumulative excretion of unchanged DHC after a single oral dose. Format: in vivo, Sprague-Dawley rats. The conditions noted are these: rat, single oral dose 97.5 mg/kg. As to the method:
as §1
For biliary excretion study, four rats were light anesthetized by ether and a PE-10 cannula was implanted into the bile duct to collect bile. A single dose of DHC was administered as described above. Bile samples were collected at 0–2, 2−4, 4−6, 6−8, 8−10, 10−24 and 24−48 h post-dosing and kept at −20 °C after the volume of each collection was recorded.
A 200 μL aliquot of plasma was vortex mixed for 3 min with 200 μL of water and 50 μL of IS (800 ng/mL). After centrifugation at 9000 rpm for 10 min, all the supernatant was loaded onto an Oasis HLB cartridge (Waters, Milford, MA, USA), which was pre-conditioned with 1 mL of methanol followed by 1 mL of deionized water. The loaded-cartridge was sequentially washed with 1 mL of water and 1 mL of 20% methanol. […]
as §2

Setting [6] is: after three freeze-thaw cycles, Cnom 1.25 ng/mL.
[7] abbreviates: after three freeze-thaw cycles, Cnom 25 ng/mL.
Setting [8] is: after three freeze-thaw cycles, Cnom 250 ng/mL.
Setting [9] is: postpreparative stability (24 h, auto-sampler 4 °C), Cnom 1.25 ng/mL.
The mark [10] stands for this setting: postpreparative stability (24 h, auto-sampler 4 °C), Cnom 25 ng/mL.
[11] abbreviates: postpreparative stability (24 h, auto-sampler 4 °C), Cnom 250 ng/mL.
Where [12] appears, read: short-term temperature stability (12 h, ambient), Cnom 1.25 ng/mL.
Setting [13] is: short-term temperature stability (12 h, ambient), Cnom 25 ng/mL.
The mark [14] stands for this setting: short-term temperature stability (12 h, ambient), Cnom 250 ng/mL.

Take `COc1ccc2cc3[n+](cc2c1OC)CCc1cc2c(cc1-3)OCO2` [berberine]: the absorbed amount in data set [1] is recorded as 33.6 % of the given dose. In addition, in the data set with cytochrome P450 3A4, the “cytochrome P450 3A4 inhibition” value was “weak cytochrome P450 3A4 inhibitor”. Also, the P-glycoprotein substrate entry with P-glycoprotein is reported as “substrate of P-glycoprotein”.

The AUC(0-inf) is total exposure, with the tail of the curve extrapolated. By AUC(0-t) is commonly meant the area under the concentration-time curve up to a stated or last time point. As usually defined, the Cmax is the maximum level reached in the sampled fluid or tissue. Broadly, the Tmax is the time at which the peak concentration occurs. The term half-life denotes how long it takes for the measured level to halve. On to `COc1cc2c(cc1OC)-c1c(C)c3ccc(OC)c(OC)c3c[n+]1CC2` [DHC, dehydrocorydaline], for which the “mean accumulated amount of DHC in urine” value in data set [2] is 0.17% ± 0.13%. Besides, the “variation in the concentration from nominal concentration” value in data set [3] (after three cycles of freezing and thawing, rat plasma) was at most 15%. The “Relative Error” value is on record as −0.27% in data set [3] (setting [6]); 10% in data set [3] (setting [7]); 9.07% in data set [3] (setting [8]); −5.47% in data set [3] (setting [9]); 4.8% in data set [3] (setting [10]); 8.14% in data set [3] (setting [11]). In addition, the entries for the “Relative Error” value in data set [3] (setting [12]), in data set [3] (setting [13]) and in data set [3] (setting [14]) were −3.87%, −12.13% and −7.73%, respectively. For the same compound, the “Cdec (mean ± S.D.)” value is 1.25 ± 0.1 ng/mL in data set [3] (setting [6]); 27.5 ± 0.87 ng/mL in data set [3] (setting [7]); 272.67 ± 8.14 ng/mL in data set [3] (setting [8]); 1.18 ± 0.06 ng/mL in data set [3] (setting [9]); 26.2 ± 0.86 ng/mL in data set [3] (setting [10]); 270.33 ± 9.42 ng/mL in data set [3] (setting [11]). Also, the results for the “Cdec (mean ± S.D.)” value in data set [3] (setting [12]), in data set [3] (setting [13]) and in data set [3] (setting [14]) were 1.2 ± 0.1 ng/mL, 21.97 ± 0.51 ng/mL and 230.67 ± 15.96 ng/mL, respectively. In addition, the variation of responses in data set [3] (processed samples in auto-sampler at 4 °C over 24 h, QC concentrations) is given as at most 10%. Moreover, the “deviation of concentration from freshly-spiked plasma” value in data set [3] (storage at ambient temperature for 12 h, rat plasma) is below 13%. Moreover, in data set [4], the AUC(0-inf) was found to be 59.1 ± 11.5 ng·h/mL. In addition, the AUC(0-t) in data set [4] came to 52.4 ± 12.8 ng·h/mL. The Cmax in data set [4] came to 9.4 ± 4.18 ng/mL. Moreover, the Tmax in data set [4] worked out at 1 h. The half-life in data set [4] is 7.93 ± 1.34 h. The k el in data set [4] (read-out: Ke (converted)) was 2.5e-05 s⁻¹. For the same compound, the “mean accumulated amount of DHC in bile” value in data set [5] (in 2 h) was 12.2% ± 7.38%. Further, in data set [5] (up to 48 h), the “total biliary excretion of unchanged DHC” value is 60.04% ± 24.66%.
